Target: T1, DkSCPL1 and DkSCPL2 co-expressed (Diospyros kaki, UniProt C6L1N2)
T1 sequence (C6L1N2 36-491): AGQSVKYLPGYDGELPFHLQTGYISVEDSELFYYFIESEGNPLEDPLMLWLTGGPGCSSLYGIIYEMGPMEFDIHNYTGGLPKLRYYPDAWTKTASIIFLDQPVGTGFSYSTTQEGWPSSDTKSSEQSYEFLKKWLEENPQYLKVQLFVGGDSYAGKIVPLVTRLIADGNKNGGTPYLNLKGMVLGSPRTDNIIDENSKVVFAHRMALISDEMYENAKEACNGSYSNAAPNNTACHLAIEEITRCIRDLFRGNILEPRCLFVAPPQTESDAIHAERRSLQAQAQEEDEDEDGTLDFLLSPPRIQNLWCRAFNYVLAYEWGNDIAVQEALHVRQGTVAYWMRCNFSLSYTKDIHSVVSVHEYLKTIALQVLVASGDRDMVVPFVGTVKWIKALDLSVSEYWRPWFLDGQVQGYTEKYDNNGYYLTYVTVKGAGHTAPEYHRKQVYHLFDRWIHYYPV
T1 sequence (A4PB66 1-452 partner): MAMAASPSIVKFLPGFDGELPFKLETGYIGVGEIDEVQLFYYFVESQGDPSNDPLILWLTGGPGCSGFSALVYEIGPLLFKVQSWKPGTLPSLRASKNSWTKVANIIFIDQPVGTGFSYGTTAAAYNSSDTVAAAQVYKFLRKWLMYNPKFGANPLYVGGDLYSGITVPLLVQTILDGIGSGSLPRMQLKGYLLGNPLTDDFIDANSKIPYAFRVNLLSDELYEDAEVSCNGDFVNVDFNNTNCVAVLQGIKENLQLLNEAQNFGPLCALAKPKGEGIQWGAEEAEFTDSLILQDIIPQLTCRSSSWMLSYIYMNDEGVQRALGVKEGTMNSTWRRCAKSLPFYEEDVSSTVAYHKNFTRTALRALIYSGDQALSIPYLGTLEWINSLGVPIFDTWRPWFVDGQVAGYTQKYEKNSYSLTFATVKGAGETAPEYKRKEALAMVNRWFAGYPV
Assay: EGCG formation, UPLC-MS/MS, crude extract of N. benthamiana leaves
Type: biochemical
Conditions: 50 mM phosphate pH 6.0, 30 °C

Row | Structure (SMILES) | EGCG formation, UPLC-MS/MS, crude extract of N. benthamiana leaves (acyl donor βG) | EGCG formation, UPLC-MS/MS, crude extract of N. benthamiana leaves (acyl acceptor EGC)
1 | Oc1cc(O)c2c(c1)O[C@H](c1cc(O)c(O)c(O)c1)[C@H](O)C2 [EGC] | the two paralogs when co‐expressed catalyzed the formation of EGCG | 
2 | O=C(O[C@@H]1O[C@H](CO)[C@@H](O)[C@H](O)[C@H]1O)c1cc(O)c(O)c(O)c1 [βG] |  | the two paralogs when co‐expressed catalyzed the formation of EGCG
